Assay results reported in PubChem BioAssay (NCI).
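Briefly, cells in 96-well plates were exposed to five compound concentrations for 48 h, and endpoints were estimated by linear interpolation. Abbreviation: GI50, concentration required for 50% inhibition of growth. TGI marks complete inhibition of growth.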

Key:
Experiment in all cases: NCI tumour cell line growth inhibition, 48 h
[1] = tested on: A498 renal
[2] = tested on: LOX IMVI melanoma
[3] = tested on: MALME-3M melanoma
[4] = tested on: OVCAR-8 ovarian
[5] = tested on: SK-MEL-2 melanoma
[6] = tested on: SK-OV-3 ovarian
[7] = tested on: SNB-75 CNS
[8] = tested on: UACC-257 melanoma
[9] = tested on: MDA-MB-231 breast
[10] = tested on: BT-549 breast

Structure (SMILES)	TGI [1] [µM]	TGI [2] [µM]	TGI [3] [µM]	TGI [4] [µM]	TGI [5] [µM]	TGI [6] [µM]	TGI [7] [µM]	TGI [8] [µM]	TGI [9] [µM]	TGI [10] [µM]	GI50 [1] [µM]	GI50 [4] [µM]	GI50 [6] [µM]	GI50 [7] [µM]	GI50 [8] [µM]
Cc1c(-c2cc3n(n2)C(c2cccs2)C(C#N)=C(c2ccccc2)N3)c(=O)n(-c2ccccc2)n1C (stereo not drawn)	> 100	> 100	> 100	> 100	> 100	> 100	> 100	98.7	–	–	–	–	–	–	–
CCP(=O)(CC)C(Cl)(Cl)C(O)C(C)(C)C (stereo not drawn)	> 100	> 100	–	> 100	> 100	> 100	> 100	> 100	> 100	–	–	–	–	–	–
C=C1c2c(cc3c(c2O)c(=O)c2ccccc2n3C)OC1(C)C	> 100	> 100	> 100	> 100	> 100	97.2	42	–	–	–	–	–	–	–	–
C/C(=N\Nc1ccc([N+](=O)[O-])cc1[N+](=O)[O-])c1ccc2ccccc2n1	–	–	> 100	> 100	> 100	> 100	> 100	> 100	> 100	> 100	–	–	–	–	–
c1ccc(N=C2SC(=NNc3ccccc3)SC2=Nc2ccccc2)cc1	> 100	> 100	> 100	> 100	> 100	> 100	> 100	> 100	> 100	–	–	–	–	–	–
O=P(O)(O)C(CSc1ccccc1)P(=O)(O)O	> 100	> 100	> 100	> 100	> 100	> 100	> 100	> 100	–	–	–	–	–	–	–
CCCNC(=S)N/N=C/c1cccc(C)n1	87.3	> 100	> 100	> 100	58.9	> 100	–	> 100	> 100	–	–	–	–	–	–
Cc1cccc(Nc2cn(COCc3ccccc3)c(=O)[nH]c2=O)c1	> 100	> 100	–	–	–	–	–	> 100	–	> 100	–	–	–	–	–
COc1ccc(/C=C2\CSC/C(=C\c3ccc(OC)c(OC)c3OC)C2=O)c(OC)c1OC	–	83.3	27.6	80.8	> 100	> 100	–	> 100	> 100	> 100	–	–	–	–	–
CC(C)(C)[Si](C)(C)OCCCC#CCO	> 100	> 100	> 100	> 100	> 100	> 100	> 100	> 100	–	–	–	–	–	–	–
NC(=O)CCC(NCc1c2ccccc2[n+]([O-])c2ccccc12)C(=O)O (stereo not drawn)	> 100	> 100	> 100	> 100	> 100	> 100	> 100	> 100	–	–	–	–	–	–	–
COc1cc(OC)c2c(c1OC)OCC(Cc1ccc(O)cc1)C2=O (stereo not drawn)	> 25	> 25	> 25	> 25	> 25	> 25	> 25	> 25	> 25	–	–	–	–	–	–
NNC(=O)CNC(=O)CSc1nnc(COc2ccc(Cl)cc2)n1-c1ccccc1	> 100	> 100	> 100	> 100	> 100	> 100	> 100	> 100	> 100	–	–	–	–	–	–
O=C1c2ccccc2CC12Cc1cc3c(cc1C2=O)CCC3 (stereo not drawn)	> 100	> 100	> 100	> 100	> 100	> 100	> 100	> 100	> 100	–	–	–	–	–	–
CC(=O)c1ccc(Oc2ccc(/C(C)=N\N=C(N)N)cc2)cc1	7.53	13.1	8.12	12.7	6.17	9.25	5.15	19	–	–	–	–	–	–	–
O=C(NO)c1coc2ccccc2c1=O	> 100	> 100	> 100	> 100	> 100	31.4	> 100	> 100	–	–	–	–	–	–	–
COP(C)(=O)/C(Cc1ccccc1)=N\O (stereo not drawn)	–	> 100	–	> 100	> 100	> 100	> 100	> 100	> 100	–	–	–	–	–	–
CC(=O)O[C@H]1CC[C@]2(C)[C@H]3CC[C@@H]4[C@H]5[C@H](C(C)C)CC[C@]5(C(=O)OCC(CO)(CO)N=C(N)N)CC[C@@]4(C)[C@]3(C)CC[C@H]2C1(C)C	3.67	–	–	5.45	–	3.96	3.23	3.97	–	–	1.86	2.32	2	1.57	1.82
CC(=O)[O-].CC(=O)[O-].O=C(N/N=C/c1cc(Cl)cc(Cl)c1[OH2+])c1ccncc1.[Co+2]	> 100	> 100	> 100	> 100	–	> 100	> 100	> 100	–	–	–	–	–	–	–
CC[N+]1(C)CCC(O)(c2ccc(Cl)cc2)C(C(=O)c2ccc(Cl)cc2)C1 (stereo not drawn)	48.3	25.6	25.6	> 100	–	27.7	–	61	40.5	–	–	–	–	–	–
